Among the test systems are HOP-62; HT-29; OVCAR-4; Malme-3M; PC-3; MDA-MB-435; SF-268; LOX IMVI; A498; M19-MEL; 786-0; KM12; UACC-62; SNB-75; SK-MEL-5; UACC-257; RPMI-8226; U-251; ACHN; MCF7.
Experiment in all cases: inhibition of tumour cell growth, NCI panel, 48 h

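Results reflect a 48-hour exposure of cells in 96-well plates to compound at five concentrations. GI50: concentration for 50% inhibition of growth.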 Calls of active or inactive are those of the source. No stated cut-off is given here; in the data, active = GI50 up to about 1.1 µM and inactive = higher.

Consider `CC1=CC2=C(OCO1)C(=O)c1ccccc1C2=O`, for which the GI50 in the test on HOP-62 was 6.87 µM (inactive); in the test with HT-29, 7.4 µM (inactive); with OVCAR-4, 3.73 µM (inactive); with Malme-3M, 2.51 µM (inactive); in the test on PC-3, 3.18 µM (inactive); in the test on MDA-MB-435, 1.46 µM (inactive). Besides, the GI50 in the test on SF-268 was 7.5 µM (inactive); in the test on LOX IMVI, 1.02 µM (active); with A498 it was 14.5 µM (inactive); with M19-MEL, 1.79 µM (inactive); with 786-0, 12.8 µM (inactive); in the test on KM12, 6.71 µM (inactive). Also, the GI50 in the test with UACC-62 is 5.11 µM (inactive); in the test on SNB-75, 3.66 µM (inactive); with SK-MEL-5, 1.5 µM (inactive); in the test with UACC-257, 2.79 µM (inactive); in the test on RPMI-8226, 4.52 µM (inactive); in the test on U-251, 1.36 µM (inactive). Moreover, the GI50 in the test on ACHN was 3.76 µM (inactive).
For the compound `NS(=O)(=O)c1cc2c(cc1Cl)NC(C(=O)c1cc(=O)c3ccc(O)cc3o1)=NS2(=O)=O`, the GI50 in the test on HOP-62, in the test on HT-29, in the test on OVCAR-4, with Malme-3M, in the test with SF-268 and in the test on LOX IMVI was > 100 µM (inactive) throughout. The GI50 in the test on A498 is > 100 µM (inactive); in the test with M19-MEL, > 100 µM (inactive); in the test on 786-0, > 100 µM (inactive); in the test with KM12, > 100 µM (inactive); in the test with UACC-62, > 100 µM (inactive); with SNB-75, 97.7 µM (inactive). Further, the GI50 in the test on SK-MEL-5, in the test with UACC-257, in the test with RPMI-8226, with U-251 and in the test on ACHN was > 100 µM (inactive) in each case.
As to `COc1ccccc1C(N)c1ccccc1` (configuration not stated), the GI50 in the test on HOP-62, with HT-29, in the test with OVCAR-4, in the test with Malme-3M, with SF-268 and in the test with LOX IMVI was > 100 µM (inactive) each time. The GI50 was > 100 µM (inactive) in the test with A498; > 100 µM (inactive) in the test on M19-MEL; > 100 µM (inactive) with 786-0; > 100 µM (inactive) in the test on KM12; > 100 µM (inactive) in the test on UACC-62; 95.9 µM (inactive) with SNB-75. In addition, the GI50 in the test with SK-MEL-5, in the test on UACC-257, with RPMI-8226, in the test with U-251 and in the test on ACHN was > 100 µM (inactive) each time.
Consider `COC(=O)c1cc(C)n(NC(=O)OC(C)(C)C)c1C`, for which the GI50 in the test with HOP-62, in the test with HT-29, in the test with Malme-3M, in the test with SF-268, with LOX IMVI and with A498 was > 100 µM (inactive) each time. Further, the GI50 in the test on M19-MEL, with 786-0, in the test on KM12, with UACC-62, in the test on SNB-75 and with SK-MEL-5 was > 100 µM (inactive) each time. The GI50 in the test on UACC-257, in the test with RPMI-8226, with U-251 and with ACHN was > 100 µM (inactive) in each case.
Consider `Cc1ccc(NC(=O)CCC(=O)C2CC(=O)CC/C2=N\NC(=O)c2cc3ccccc3cc2O)cc1C` (configuration not stated), for which the GI50 in the test with HOP-62 is 43.4 µM (inactive); in the test on HT-29, 38.5 µM (inactive); with OVCAR-4 it was 16.4 µM (inactive); in the test on Malme-3M, 30.4 µM (inactive); in the test with SF-268 it was 17.3 µM (inactive); in the test on A498, 38.4 µM (inactive). For the same compound, the GI50 is 27.4 µM (inactive) in the test on M19-MEL; 25.8 µM (inactive) in the test on 786-0; 31.8 µM (inactive) in the test with KM12; 10.2 µM (inactive) in the test with UACC-62; 17.1 µM (inactive) in the test with SNB-75; 14.5 µM (inactive) in the test with SK-MEL-5. In addition, the GI50 in the test with UACC-257 was 20.7 µM (inactive); in the test on RPMI-8226, 25 µM (inactive); with U-251, 40.1 µM (inactive); in the test with ACHN, 18.9 µM (inactive).
As to `NC(=O)c1csc(C2OC(COP(=O)(O)CP(=O)(O)OCC3OC(n4cnc5c(N)ncnc54)C(O)C3O)C(O)C2O)n1` (configuration not stated), the GI50 in the test with HOP-62 was > 100 µM (inactive); in the test on HT-29, 87.7 µM (inactive); in the test on OVCAR-4 it was > 100 µM (inactive); in the test on Malme-3M, > 100 µM (inactive); in the test with SF-268 it was > 100 µM (inactive); in the test on LOX IMVI, 97.1 µM (inactive). Also, the GI50 in the test with A498, in the test on M19-MEL, with 786-0, in the test with KM12, with UACC-62 and in the test with SNB-75 was > 100 µM (inactive) throughout. Besides, the GI50 in the test with SK-MEL-5, in the test on UACC-257, in the test on RPMI-8226, in the test on U-251 and with ACHN was > 100 µM (inactive) throughout.
For the compound `CN(C)c1ccc(/C=C2\C[N+](C)(C)C/C(=C\c3ccc(N(C)C)cc3)C2=O)cc1`, the GI50 in the test on HOP-62 was 42.8 µM (inactive); in the test with HT-29, 9.18 µM (inactive); in the test with OVCAR-4 it was 21.5 µM (inactive); in the test on Malme-3M, 22.1 µM (inactive); in the test with MDA-MB-435, 12.1 µM (inactive); in the test on SF-268, 19.2 µM (inactive). The GI50 is 14.9 µM (inactive) in the test with LOX IMVI; > 100 µM (inactive) in the test on A498; 13.4 µM (inactive) in the test with M19-MEL; 30.7 µM (inactive) in the test on 786-0; 6.14 µM (inactive) in the test with KM12; 13.6 µM (inactive) in the test on UACC-62. Also, the GI50 in the test on SNB-75 is 17.1 µM (inactive); in the test with SK-MEL-5 it was 11.6 µM (inactive); with UACC-257 it was 12.1 µM (inactive); with MCF7 it was 5.4 µM (inactive); with RPMI-8226, 3.47 µM (inactive); with U-251 it was 6.27 µM (inactive). Further, the GI50 in the test on ACHN was 70.5 µM (inactive).
Take `Cc1cccc2c(O)cc(=O)oc12`: the GI50 in the test on HOP-62, in the test on HT-29, in the test on OVCAR-4, with Malme-3M, with SF-268 and with LOX IMVI was > 100 µM (inactive) in each case. Also, the GI50 in the test with A498, in the test on M19-MEL, in the test with 786-0, with KM12, in the test with UACC-62 and in the test on SNB-75 was > 100 µM (inactive) each time. Also, the GI50 in the test on UACC-257, with RPMI-8226, in the test on U-251 and in the test on ACHN was > 100 µM (inactive) in each case.
As for `Nc1n[nH]c(N)n1` [GUANAZOLE], the GI50 in the test with HOP-62 is 2360 µM (inactive); in the test on HT-29, 5060 µM (inactive); in the test with OVCAR-4, > 9120 µM (inactive); with Malme-3M, 9100 µM (inactive); with PC-3 it was 8510 µM (inactive); in the test on MDA-MB-435, > 9750 µM (inactive). The GI50 with SF-268 is 5740 µM (inactive); in the test with LOX IMVI, 2960 µM (inactive); in the test on A498, 5470 µM (inactive); with M19-MEL it was > 10000 µM (inactive); with 786-0, 2580 µM (inactive); in the test on KM12 it was 8890 µM (inactive). Moreover, the GI50 was 2620 µM (inactive) with UACC-62; 9250 µM (inactive) in the test with SNB-75; 3940 µM (inactive) in the test on SK-MEL-5; 6430 µM (inactive) with UACC-257; 3400 µM (inactive) with MCF7; 4670 µM (inactive) in the test on RPMI-8226. In addition, the GI50 with U-251 is 3800 µM (inactive); in the test with ACHN it was 1890 µM (inactive).

For the origin of these results see ChEMBL document CHEMBL1201862, “PubChem BioAssay data set” (2004).
